Source: paper PMC9916778 (International Journal of Molecular Sciences, 2023)

How the values were obtained:
[1] = system: A2780 ovarian carcinoma cells; assay: In vitro cytotoxicity (MTT assay), A2780; type: cell-based, human; details: MTT, 24 h incubation, ± standard deviation, triplicate; read-out: IC50, A2780
Description: (§1) The reference normal cell line of human fetal fibroblasts (MRC-5) was obtained from the same commercial source and maintained according to the producer’s instructions. The half-maximal inhibitory concentrations (IC50) were calculated from dose–response curves by means of the GraphPad Prism 6 software (GraphPad Software, San Diego, CA, USA).

[2] = system: A2780R Cisplatin-resistant ovarian carcinoma cells; assay: In vitro cytotoxicity (MTT assay), A2780R; type: cell-based, human; details: ± standard deviation, triplicate
Description: as §1, with “The testing was performed on the ovarian carcinoma (A2780), Cisplatin-resistant ovarian carcinoma (A2780R), prostate adenocarcinoma (PC-3), prostate carcinoma (22Rv1), and leukemia monocytic (THP-1) and intestinal colon adenocarcinoma (LS180) human cell lines that were obtained from the ATCC collection of cell lines and cultivated according to the producer’s instructions. The reference” for “The reference”

[3] = system: PC-3 prostate adenocarcinoma cells; assay: In vitro cytotoxicity (MTT assay), PC-3; type: cell-based, human; details: ± standard deviation, triplicate
Description: as §1, with “The testing was performed on the ovarian carcinoma (A2780), Cisplatin-resistant ovarian carcinoma (A2780R), prostate adenocarcinoma (PC-3), prostate carcinoma (22Rv1), and leukemia monocytic (THP-1) and intestinal colon adenocarcinoma (LS180) human cell lines that were obtained from the ATCC collection of cell lines and cultivated according to the producer’s instructions. The reference” for “The reference”

[4] = system: MRC5 human fetal fibroblasts; assay: In vitro cytotoxicity (MTT assay), normal MRC-5 fibroblasts; type: cell-based; details: ± standard deviation, triplicate, read-out: IC50, MRC5 (healthy cells)
Description: as §1, with “The testing was performed on the ovarian carcinoma (A2780), Cisplatin-resistant ovarian carcinoma (A2780R), prostate adenocarcinoma (PC-3), prostate carcinoma (22Rv1), and leukemia monocytic (THP-1) and intestinal colon adenocarcinoma (LS180) human cell lines that were obtained from the ATCC collection of cell lines and cultivated according to the producer’s instructions. The reference” for “The reference”

[5] = system: human cancer cell lines (A2780, A2780R, PC-3, 22Rv1, and THP-1); assay: In vitro cytotoxicity, summary statements over the panel of cell lines; type: cell-based; details: read-out: IC50 of kinetin; A2780, A2780R, PC-3; concentration range 0.01–25 μM
Description: as §1, with “The testing was performed on the ovarian carcinoma (A2780), Cisplatin-resistant ovarian carcinoma (A2780R), prostate adenocarcinoma (PC-3), prostate carcinoma (22Rv1), and leukemia monocytic (THP-1) and intestinal colon adenocarcinoma (LS180) human cell lines that were obtained from the ATCC collection of cell lines and cultivated according to the producer’s instructions. The reference” for “The reference”

THP1-Blue™ NF-κB cells = assay: Cell viability, CCK-8, serum-free medium; type: cell-based, human; details: THP1-Blue NF-κB cells, serum-free medium, 24 h treatment, CCK-8; read-out: IC50 ± SEM, cytotoxic effect
Description: The cells were cultivated in RPMI (Roswell Park Memorial Institute) 1640 medium (Biosera; Nuaille, France) supplemented with 10% fetal bovine serum (FBS) and antibiotics (100 U/mL penicillin and […] streptomycin) (both from Merck). All further experiments were performed in serum-free medium. The effect of the test compounds dissolved in DMF on cell viability after 24 h incubation was determined using a Cell Counting Kit-8 (CCK-8; Merck) according to the manufacturer’s instructions, similarly as previously described.

PPARγ = assay: Immunocytochemical analysis of PPARγ expression and localisation; type: cell-based, human; details: 100 nM, 1 h pre-treatment, LPS-stimulated THP1-Blue NF-κB macrophages
Description: THP1-Blue™ NF-κB cells were seeded onto a µ-Slide 8 Well (Ibidi; Gräfelfing, Germany) and differentiated into macrophages by […] (PMA) at the final concentration of 50 ng/mL, as was described previously.
Differentiated macrophages were washed by PBS and covered by fresh serum-free medium for 2 h. […] One hour later, the cells were challenged by LPS for 24 h. Then, the cells were washed by PBS and fixed by 4% paraformaldehyde dissolved in PBS for 10 min. Cell permeabilization and blocking of free binding sites were performed by 0.1% (v/v) Triton X100 and 5% (w/v) bovine serum albumin (BSA) dissolved in PBS for 1 h at room temperature. After that, cells were washed by PBS with 0.1% (v/v) Tween 20 and covered by fresh PBS with 5% BSA and 0.1% Tween 20 containing Alexa Fluor® 546-labelled anti-PPARγ antibody diluted 1:100 (catalogue number sc-7273; Santa Cruz Biotechnology; Dallas, TX, USA) for a further 24 h. Then, cells were washed by PBS with 0.1% Tween 20 and incubated with Hoechst stain diluted 1:2000 for 10 min. The remaining stain was washed out by PBS and covered by fresh PBS for further microscope analysis. The confocal microscope Leica TCS SP8 MP (Leica Microsystems, Mannheim, Germany) was used for obtaining the images for the immunocytochemical analysis of PPARγ expression and localization.

MCF-7 cells = details: literature data ref 22; cited from earlier work
[6] = system: 22Rv1 prostate carcinoma cells; assay: In vitro cytotoxicity (MTT assay), 22Rv1; type: cell-based, human; details: ± standard deviation, triplicate
Description: as §1, with “The testing was performed on the ovarian carcinoma (A2780), Cisplatin-resistant ovarian carcinoma (A2780R), prostate adenocarcinoma (PC-3), prostate carcinoma (22Rv1), and leukemia monocytic (THP-1) and intestinal colon adenocarcinoma (LS180) human cell lines that were obtained from the ATCC collection of cell lines and cultivated according to the producer’s instructions. The reference” for “The reference”

[7] = system: LS180 intestinal colon adenocarcinoma cells; assay: In vitro cytotoxicity (MTT assay), LS180; type: cell-based, human; details: ± standard deviation, triplicate
Description: as §1, with “The testing was performed on the ovarian carcinoma (A2780), Cisplatin-resistant ovarian carcinoma (A2780R), prostate adenocarcinoma (PC-3), prostate carcinoma (22Rv1), and leukemia monocytic (THP-1) and intestinal colon adenocarcinoma (LS180) human cell lines that were obtained from the ATCC collection of cell lines and cultivated according to the producer’s instructions. The reference” for “The reference”

A2780 cells [8] = assay: Cell cycle analysis (flow cytometry); type: cell-based, human; details: A2780, half-cytotoxic concentration, 24 h
Description: After 24 h, the cells were treated with a 4 µM solution of complex (1) and cultivated for the next 24 h. Then, the cells were washed once with PBS (0.1 M, pH 7.4), and cell cycle analysis was performed using a BD Cycletest^TM Plus DNA kit (Becton Dickinson, Franklin Lakes, NJ, USA) according to the manufacturer’s protocol. The data were acquired using a BD FACSVerse flow cytometer (Becton Dickinson, USA) in three independent experiments, each performed in duplicate, while at least 5 × 10^3 events were recorded for each sample.

A2780 cells [9] = assay: Induction of apoptosis, Annexin V-FITC/PI staining; type: cell-based, human; details: A2780, half-cytotoxic concentration, 24 h
Description: (§2) The induction of cell death by complex (1) was studied by two methods in the A2780 cell line. Firstly, the induction of apoptosis was tested using an Annexin V-FITC/PI commercial kit (V13242, Thermo Fisher Scientific, USA). Second, caspase 3/7 activation was monitored using the CellEvent™ Caspase-3/7 Green Flow Cytometry Assay Kit (C10427, Thermo Fisher Scientific, USA). Both assays were performed according to the manufacturers’ protocols with one modification in the caspase induction assay: the use of CellEvent^TM Caspase-3/7 Green Detection Reagent was only for the detection of caspase 3/7 activation. The general procedure was as follows: 5 × 10^4 cells per well were seeded in a 24-well cell culture plate, and after 24 h, the cells were treated with 4 µM solution of complex (1) and cultivated for next 24 h. […] The trypsin was blocked by adding the cell culture medium to a final volume of 500 µL, and the resulting cell suspensions were divided into two separate 250 µL aliquots. The first set of aliquots was used to evaluate the Annexin V-FITC/PI assay, whilst the second one was used for the caspase 3/7 activation assay. Both assays were performed using a BD FACSVerse flow cytometer (Becton Dickinson, USA) in three independent experiments, each performed in duplicate.

caspases 3/7 = assay: Caspase 3/7 activation (flow cytometry); type: cell-based, human; details: A2780, half-cytotoxic concentration, 24 h
Description: as §2

A2780 cells [10] = assay: Induction of autophagy (CYTO-ID kit); type: cell-based, human; details: A2780, half-cytotoxic concentration, 24 h
Description: The induction of autophagy by complex (1) was studied using a CYTO-ID® Autophagy Detection Kit 2.0 (ENZO, New York, NY, USA) according to the manufacturer’s protocol. Briefly, the A2780 cells were seeded in a 24-well cell culture plate at 5 × 10^4 cells per well and cultivated for 24 h. The next day, the cells were treated with complex (1) at 4 µM. […] Then, the cells were stained with CYTO-ID® Green stain solution and incubated for 30 min in the dark. After the final wash with PBS, the cell suspensions were analyzed using the BD FACSVerse flow cytometer (Becton Dickinson, USA) in three separate experiments, while at least 10^4 events were recorded for each sample prepared in duplicates. The cells incubated with the mixture of chloroquine (10 µM) and rapamycin (0.5 µM) for 18 h were used as a positive control.

A2780 cells [11] = assay: Intracellular ROS/superoxide production; type: cell-based, human; details: A2780, half-cytotoxic concentration, 24 h, with or without pyocyanin
Description: ROS induction in A2780 cells after incubation with 4 μM complex (1) was studied using a ROS-ID® Total ROS/Superoxide detection kit (Enzo Life Sciences, Farmingdale, NY, USA) according to the manufacturer’s protocol. The cells were seeded in a 96-well cell culture plates at 10^4 cells per well and cultivated for 24 h, followed by 24 h experimental treatment. Then, the cells were stained with ROS/superoxide probe mixture and incubated at 37 °C in the dark for 60 min. Finally, the fluorescence was measured using a microplate reader Infinite M200Pro (Tecan, Männedorf, Switzerland). The control samples contained 500 µM pyocyanin, and three independent experiments were conducted, each in triplicate.

A2780 cells [12] = assay: Mitochondrial membrane potential analysis (MITO-ID); type: cell-based, human; details: A2780, half-cytotoxic concentration, 24 h
Description: The A2780 cells were seeded in 24-well cell culture plates at 5 × 10^4 cells/well and cultivated for 24 h. The next day, the complex (1) was added to a final concentration of 4 µM, and the cells were incubated for another 24 h. […] The cells were then isolated by centrifugation and resuspended in a staining solution prepared according to the manufacturer’s protocol from a MITO-ID® Membrane Potential Detection kit (Enzo Life Sciences, USA). Finally, the cells were analyzed using a BD FACSVerse flow cytometer (Becton Dickinson, USA). The control was carried out by treatment with 2 µM carbonyl cyanide 3-chlorophenylhydrazone (CCCP). Three independent experiments were conducted, each in duplicate.

Molecule | IC50 [1] [µM] | IC50 [2] [µM] | IC50 [3] [µM] | IC50 [4] [µM] | IC50 [5] [µM] | IC50 (THP1-Blue™ NF-κB cells) [µM] | Effect on the amount of PPARγ (PPARγ) | IC50 (MCF-7 cells) [µM] | IC50 [6] [µM] | IC50 [7] [µM] | Effect on the cell cycle (A2780 cells [8]) | Number of cells in the G0/G1 phase (A2780 cells [8]; vs untreated control) | Cells in early and late-stage apoptosis (A2780 cells [9]) | Cells with active executioner caspases 3/7 (caspases 3/7) | Induction of autophagy (A2780 cells [10]) | Intracellular oxidative stress, ROS and superoxide levels (A2780 cells [11]) | Damage to mitochondrial membranes (A2780 cells [12])
6-furfuryladenine [Kinetin] | > 25 | > 25 | > 25 | > 25 | > 25 | > 10 | did not show this effect | 52 | – | – | – | – | – | – | – | – | –
N.N.[Cl][Pt][Cl] [Cisplatin] | – | > 50 | > 50 | > 50 | – | – | – | – | 28.2 ± 4.2 | > 50 | arrested a significant number of cells in S-phase | significant decrease in the number of cells in the G0/G1 phase | around 40% | around 50% | significantly induced the autophagy | did not cause a significant increase in the intracellular oxidative stress | Significant changes in mitochondrial membrane permeability
